System: 266295-075-R-J1-PDC spheroid viability
Assay: Anticancer human tumor 266295-075-R-J1-PDC patient-derived head and neck squamous carcinoma cell line growth inhibition [POLQ]
Details: spheroids with HUVEC and MSC; for IC50: curve of first compound; for viability, T/C: stronger effect = lower value
In short: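 Complex spheroid viability model combining PDC tumour cells with endothelial (HUVEC) and MSC stromal cells. Novobiocin, ART-558 or RP6685 were tested singly and in combination with standard and investigational anticancer drugs. Each was titrated in half-log steps from near clinical Cmax, or from 10 microM where Cmax was unknown.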

[1] = second compound 0.0316 µM, first compound 0.0316 µM
[2] = second compound 0.0316 µM, first compound 0.1 µM
[3] = second compound 0.0316 µM, first compound 0.316 µM
[4] = second compound 0.0316 µM, first compound 1 µM
[5] = second compound 0.0316 µM, first compound 3.16 µM
[6] = second compound 0.0316 µM, first compound 10 µM
[7] = second compound 0.1 µM, first compound 0.0316 µM
[8] = second compound 0.1 µM, first compound 0.1 µM
[9] = second compound 0.1 µM, first compound 0.316 µM
[10] = second compound 0.1 µM, first compound 1 µM
[11] = second compound 0.1 µM, first compound 3.16 µM
[12] = second compound 0.1 µM, first compound 10 µM
[13] = second compound 0.316 µM, first compound 0.0316 µM
[14] = second compound 0.316 µM, first compound 0.1 µM
[15] = second compound 0.316 µM, first compound 0.316 µM
[16] = second compound 0.316 µM, first compound 1 µM
[17] = second compound 0.316 µM, first compound 3.16 µM
[18] = second compound 0.316 µM, first compound 10 µM
[19] = second compound 1 µM, first compound 0.0316 µM
[20] = second compound 1 µM, first compound 0.1 µM
[21] = second compound 1 µM, first compound 0.316 µM
[22] = second compound 1 µM, first compound 1 µM
[23] = second compound 1 µM, first compound 3.16 µM
[24] = second compound 1 µM, first compound 10 µM
[25] = second compound 3.16 µM, first compound 0.0316 µM
[26] = second compound 3.16 µM, first compound 0.1 µM
[27] = second compound 3.16 µM, first compound 0.316 µM
[28] = second compound 3.16 µM, first compound 1 µM
[29] = second compound 3.16 µM, first compound 3.16 µM
[30] = second compound 3.16 µM, first compound 10 µM
[31] = second compound 10 µM, first compound 0.0316 µM
[32] = second compound 10 µM, first compound 0.1 µM
[33] = second compound 10 µM, first compound 0.316 µM
[34] = second compound 10 µM, first compound 1 µM
[35] = second compound 10 µM, first compound 3.16 µM
[36] = second compound 10 µM, first compound 10 µM
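Also: spheroids exposed to compounds for seven days before readout.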

Work on `CC(=O)O[C@H]1C(=O)[C@@]2(C)[C@H]([C@H](OC(=O)c3ccccc3)[C@]3(O)C[C@H](OC(=O)[C@H](O)[C@@H](NC(=O)c4ccccc4)c4ccccc4)C(C)=C1C3(C)C)[C@]1(OC(C)=O)CO[C@@H]1C[C@@H]2O` + COC1C(OC(N)=O)C(O)C(Oc2ccc3c(O)c(NC(=O)c4ccc(O)c(CC=C(C)C)c4)c(=O)oc3c2C)OC1(C)C yielded an IC50 (second compound 0.0316 µM) of over 3 µM, an IC50 (second compound 0.1 µM) of over 3 µM and an IC50 (second compound 0.316 µM) of over 3 µM. It also gave an IC50 (second compound 1 µM) of over 3 µM, an IC50 (second compound 3.16 µM) of over 3 µM and an IC50 (second compound 10 µM) of over 3 µM. For the same compound, the viability, T/C (second compound 0.0316 µM, first compound 0.00949 µM) was 79.5%, the viability, T/C (second compound 0.0316 µM, first compound 0.03 µM) was 69.1% and the viability, T/C (second compound 0.0316 µM, first compound 0.0949 µM) was 63.3%. The viability, T/C (second compound 0.0316 µM, first compound 0.3 µM) was 86.2%, the viability, T/C (second compound 0.0316 µM, first compound 0.949 µM) was 75.6% and the viability, T/C (second compound 0.0316 µM, first compound 3 µM) was 71.3%. For the same compound, the viability, T/C (second compound 0.1 µM, first compound 0.00949 µM) was 92.3%, the viability, T/C (second compound 0.1 µM, first compound 0.03 µM) was 79% and the viability, T/C (second compound 0.1 µM, first compound 0.0949 µM) was 61.2%. For the same compound, the viability, T/C (second compound 0.1 µM, first compound 0.3 µM) was 73.2%, the viability, T/C (second compound 0.1 µM, first compound 0.949 µM) was 78.1% and the viability, T/C (second compound 0.1 µM, first compound 3 µM) was 69%. For the same compound, the viability, T/C (second compound 0.316 µM, first compound 0.00949 µM) was 93.6%, the viability, T/C (second compound 0.316 µM, first compound 0.03 µM) was 73.4% and the viability, T/C (second compound 0.316 µM, first compound 0.0949 µM) was 66.5%. It also gave a viability, T/C (second compound 0.316 µM, first compound 0.3 µM) of 67.4%, a viability, T/C (second compound 0.316 µM, first compound 0.949 µM) of 72.1% and a viability, T/C (second compound 0.316 µM, first compound 3 µM) of 81.2%. For the same compound, the viability, T/C (second compound 1 µM, first compound 0.00949 µM) was 76.9%, the viability, T/C (second compound 1 µM, first compound 0.03 µM) was 70% and the viability, T/C (second compound 1 µM, first compound 0.0949 µM) was 67.8%. It also gave a viability, T/C (second compound 1 µM, first compound 0.3 µM) of 80.7%, a viability, T/C (second compound 1 µM, first compound 0.949 µM) of 77.3% and a viability, T/C (second compound 1 µM, first compound 3 µM) of 65%. It also gave a viability, T/C (second compound 3.16 µM, first compound 0.00949 µM) of 81.9%, a viability, T/C (second compound 3.16 µM, first compound 0.03 µM) of 83.6% and a viability, T/C (second compound 3.16 µM, first compound 0.0949 µM) of 62.5%. The viability, T/C (second compound 3.16 µM, first compound 0.3 µM) was 75.5%, the viability, T/C (second compound 3.16 µM, first compound 0.949 µM) was 71.3% and the viability, T/C (second compound 3.16 µM, first compound 3 µM) was 75.2%. It also gave a viability, T/C (second compound 10 µM, first compound 0.00949 µM) of 85.6%, a viability, T/C (second compound 10 µM, first compound 0.03 µM) of 72.3% and a viability, T/C (second compound 10 µM, first compound 0.0949 µM) of 62.8%. The viability, T/C (second compound 10 µM, first compound 0.3 µM) was 60.5%, the viability, T/C (second compound 10 µM, first compound 0.949 µM) was 75.5% and the viability, T/C (second compound 10 µM, first compound 3 µM) was 74.7%.
With `COc1cc(C2c3cc4c(cc3C(OC3OC5COC(C)OC5C(O)C3O)C3COC(=O)C23)OCO4)cc(OC)c1O` (stereo unspecified) + COC1C(OC(N)=O)C(O)C(Oc2ccc3c(O)c(NC(=O)c4ccc(O)c(CC=C(C)C)c4)c(=O)oc3c2C)OC1(C)C the IC50 (second compound 0.0316 µM) was over 10 µM, the IC50 (second compound 0.1 µM) was over 10 µM and the IC50 (second compound 0.316 µM) was over 10 µM. For the same compound, the IC50 (second compound 1 µM) was over 10 µM, the IC50 (second compound 3.16 µM) was over 10 µM and the IC50 (second compound 10 µM) was over 10 µM. The viability, T/C [1] was 81.4%, the viability, T/C [2] was 118% and the viability, T/C [3] was 93.5%. The viability, T/C [4] was 89.6%, the viability, T/C [5] was 89.1% and the viability, T/C [6] was 76.9%. It also gave a viability, T/C [7] of 88.7%, a viability, T/C [8] of 105% and a viability, T/C [9] of 110%. The viability, T/C [10] was 83.2%, the viability, T/C [11] was 85.1% and the viability, T/C [12] was 77.4%. It also gave a viability, T/C [13] of 90.1%, a viability, T/C [14] of 98.5% and a viability, T/C [15] of 89.8%. The viability, T/C [16] was 87%, the viability, T/C [17] was 83.3% and the viability, T/C [18] was 82%. It also gave a viability, T/C [19] of 101%, a viability, T/C [20] of 92.1% and a viability, T/C [21] of 86.3%. The viability, T/C [22] was 96.9%, the viability, T/C [23] was 91.1% and the viability, T/C [24] was 72.2%. The viability, T/C [25] was 102%, the viability, T/C [26] was 91.2% and the viability, T/C [27] was 114%. The viability, T/C [28] was 94.7%, the viability, T/C [29] was 99% and the viability, T/C [30] was 83%. For the same compound, the viability, T/C [31] was 116%, the viability, T/C [32] was 116% and the viability, T/C [33] was 120%. The viability, T/C [34] was 92.4%, the viability, T/C [35] was 110% and the viability, T/C [36] was 80.5%.
`COc1cccc2c1C(=O)c1c(O)c3c(c(O)c1C2=O)CC(O)(C(=O)CO)CC3OC1CC(N)C(O)C(C)O1` (stereo unspecified) + COC1C(OC(N)=O)C(O)C(Oc2ccc3c(O)c(NC(=O)c4ccc(O)c(CC=C(C)C)c4)c(=O)oc3c2C)OC1(C)C was tested, and the IC50 (second compound 0.0316 µM) was 3.17 µM, the IC50 (second compound 0.1 µM) was 2.56 µM and the IC50 (second compound 0.316 µM) was 3.45 µM. The IC50 (second compound 1 µM) was 2.64 µM, the IC50 (second compound 3.16 µM) was 2.16 µM and the IC50 (second compound 10 µM) was 3.72 µM. It also gave a viability, T/C [1] of 95.5%, a viability, T/C [2] of 104% and a viability, T/C [3] of 82.4%. For the same compound, the viability, T/C [4] was 75.8%, the viability, T/C [5] was 51.8% and the viability, T/C [6] was 2.47%. The viability, T/C [7] was 107%, the viability, T/C [8] was 96% and the viability, T/C [9] was 74.2%. For the same compound, the viability, T/C [10] was 74.7%, the viability, T/C [11] was 50.4% and the viability, T/C [12] was 2.16%. For the same compound, the viability, T/C [13] was 102%, the viability, T/C [14] was 96% and the viability, T/C [15] was 76.7%. The viability, T/C [16] was 74.8%, the viability, T/C [17] was 61.4% and the viability, T/C [18] was 2.49%. It also gave a viability, T/C [19] of 103%, a viability, T/C [20] of 91.4% and a viability, T/C [21] of 77%. For the same compound, the viability, T/C [22] was 64.6%, the viability, T/C [23] was 57.5% and the viability, T/C [24] was 2.7%. The viability, T/C [25] was 98.8%, the viability, T/C [26] was 90.4% and the viability, T/C [27] was 78.4%. For the same compound, the viability, T/C [28] was 68.7%, the viability, T/C [29] was 42.3% and the viability, T/C [30] was 2.41%. The viability, T/C [31] was 99.5%, the viability, T/C [32] was 83.1% and the viability, T/C [33] was 83.1%. It also gave a viability, T/C [34] of 75%, a viability, T/C [35] of 62.2% and a viability, T/C [36] of 1.87%.

Reference: PubChem BioAssay AID1963853 (Molecular Pharmacology Branch, DTP, NCI, 2024)
